50 compounds from patent publication US8101550B2, “Anthranilic acid diamide derivative with hetero-aromatic and hetero-cyclic substituents” (Bayer Cropscience AG, priority 2006, dated 2012) can be followed below.

SMILES strings stand for the structures.

The first series concerns caterpillars of the armyworm (Spodoptera frugiperda). As to the kind of experiment: Spodoptera frugiperda test (cabbage leaves, immersion). The note with it: 0.8 g/ha; cabbage leaves immersed. The series is classed as in vivo. Here is the method: An appropriate preparation of active compound is prepared by mixing 1 part by weight of active compound with the stated amounts of solvent and emulsifier and diluting the concentrate with emulsifier-containing water to the desired concentration.
Cabbage leaves (Brassica oleracea) are treated by immersion into a preparation of active compound at the desired concentration and, are populated with caterpillars of the armyworm (Spodoptera frugiperda) while the leaves are still wet.
After the desired time the effect in % is determined. 100% means that all of the caterpillars have been killed; 0% means that no caterpillars have been killed.
Cabbage leaves (Brassica oleracea) are treated by immersion into a preparation of active compound at the desired concentration and are populated with caterpillars of the armyworm (Spodoptera frugiperda) while the leaves are still wet.
In the case of `Cc1cc(Cl)cc(C(=O)NC(C)C)c1NC(=O)c1cc(Cn2nc(C(F)(F)F)nc2C(F)(F)F)nn1-c1ncccc1Cl` [I-1-5], the “Kill level after 7 d in %” value amounted to 100%.
On the same count and under the same terms, the result for `Cc1cc(Cl)cc(C(=O)NC(C)C)c1NC(=O)c1cc(Cn2ccc(C(F)(F)F)n2)nn1-c1ncccc1Cl` [I-1-6] reads 100%.
Take `Cc1cc(Cl)cc(C(=O)NC(C)C)c1NC(=O)c1cc(Cn2cc(C#N)cn2)nn1-c1ncccc1Cl` [I-1-8]: the “Kill level after 7 d in %” value amounted to 100%.

Staying with this series, now noted: 100 g/ha; cabbage leaves immersed.
In the case of `CNC(=O)c1cc(Cl)cc(C)c1NC(=O)c1cc(Cn2nc(C(F)(F)F)cc2C(F)(F)F)nn1-c1ncccc1Cl` [I-1-1, 5-(3,5-Bis-trifluoromethylpyrazol-1-ylmethyl)-2-(3-chloropyridin-2-yl)-2H-pyrazole-3-carboxylic acid 4-chloro-2-methyl-6-methylcarbamoylphenyl amide], the “Kill level after 7 d in %” value is on record as 100%.
The same measure, in the same setting: the result for `Cc1cc(Cl)cc(C(=O)NC(C)C)c1NC(=O)c1cc(Cn2nc(C(F)(F)F)cc2C(F)(F)F)nn1-c1ncccc1Cl` [I-1-2] reads 100%; that for `Cc1cc(Cl)cc(C(=O)NC(C)C)c1NC(=O)c1cc(Cn2nc(C(F)(F)F)nc2C(F)(F)F)nn1-c1ncccc1Cl` [I-1-5], 100%.
Regarding `Cc1cc(Cl)cc(C(=O)NC(C)C)c1NC(=O)c1cc(Cn2ccc(C(F)(F)F)n2)nn1-c1ncccc1Cl` [I-1-6], the “Kill level after 7 d in %” value amounted to 100%.
As to `Cc1cc(Cl)cc(C(=O)NC(C)C)c1NC(=O)c1cc(Cn2cc(F)cn2)nn1-c1ncccc1Cl` [I-1-7], the “Kill level after 7 d in %” value was determined as 100%.
As for `Cc1cc(Cl)cc(C(=O)NC(C)C)c1NC(=O)c1cc(Cn2cc(C#N)cn2)nn1-c1ncccc1Cl` [I-1-8], the “Kill level after 7 d in %” value turned out to be 100%.

Test system in another series: not listed separately
As to the kind of experiment: log P determination by HPLC on reverse-phase column (EEC Directive 79/831 Annex V.A8). It is filed as physicochemical.
Conditions: not given
In a few lines: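 Reverse-phase C18 HPLC at 43 °C, following EEC Directive 79/831 Annex V.A8. Acidic LC-MS used pH 2.7 eluents (0.1% aqueous formic acid and acetonitrile with 0.1% formic acid) on a 10–95% acetonitrile linear gradient. Log P was interpolated linearly from retention times against unbranched C3–C16 alkan-2-ones of known log P.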
`O=C(NC1CC1)c1cc(Cl)cc(Cl)c1NC(=O)c1cc(Cn2cnc(C(F)(F)C(F)(F)F)n2)nn1-c1ncccc1Cl` [I-1-335] came in with a logP of 2.69.
On the same count and under the same terms, with `NC(=O)c1cc(Cl)cc(Cl)c1NC(=O)c1cc(Cn2cnc(C(F)(F)C(F)(F)F)n2)nn1-c1ncccc1Cl` [I-1-336] the figure was 2.32; with `N#CCNC(=O)c1cc(Cl)cc(Cl)c1NC(=O)c1cc(Cn2cnc(C(F)(F)C(F)(F)F)n2)nn1-c1ncccc1Cl` [I-1-337], 2.56; with `Cc1cc(C#N)cc(C(=O)NC2CC2)c1NC(=O)c1cc(Cn2cnc(C(F)(F)C(F)(F)F)n2)nn1-c1ncccc1Cl` [I-1-338], 2.45.
The same measure, in the same setting: the result for `Cc1cc(C#N)cc(C(N)=O)c1NC(=O)c1cc(Cn2cnc(C(F)(F)C(F)(F)F)n2)nn1-c1ncccc1Cl` [I-1-339] reads 2.11.
The same measure, in the same setting: with `CC(C)NC(=O)c1cc(Cl)cc(Cl)c1NC(=O)c1cc(Cn2cnc(C(F)(F)C(F)(F)F)n2)nn1-c1ncccc1Cl` [I-1-340] the figure was 2.55.
Regarding `Cc1cc(Cl)cc(C(=O)NC(C)C)c1NC(=O)c1cc(Cn2cnc(C(F)(F)C(F)(F)F)n2)nn1-c1ncccc1Cl` [I-1-341], the logP is recorded as 2.63.
Still for that read-out and setting: with `CNC(=O)c1cc(Cl)cc(Cl)c1NC(=O)c1cc(Cn2cnc(C(F)(F)C(F)(F)F)n2)nn1-c1ncccc1Cl` [I-1-342] the figure was 2.15; with `Cc1cc(Cl)cc(C(N)=O)c1NC(=O)c1cc(Cn2cnc(C(F)(F)C(F)(F)F)n2)nn1-c1ncccc1Cl` [I-1-343], 2.02; with `O=C(NC1CC1)c1cc(Cl)cc(Cl)c1NC(=O)c1cc(Cn2cnc(C(F)(F)C(F)(F)F)n2)nn1-c1ncccc1Cl` [I-1-344], 2.37.
With `Cc1cc(Cl)cc(C(=O)NC2CC2)c1NC(=O)c1cc(Cn2cnc(C(F)(F)C(F)(F)F)n2)nn1-c1ncccc1Cl` [I-1-345], the logP is reported as 2.42.
`NC(=O)c1cc(Cl)cc(Cl)c1NC(=O)c1cc(Cn2cnc(C(F)(F)C(F)(F)F)n2)nn1-c1ncccc1Cl` [I-1-346] came in with a logP of 2.01.
On the same count and under the same terms, with `CNC(=O)c1cc(Cl)cc(C)c1NC(=O)c1cc(Cn2cnc(C(F)(F)C(F)(F)F)n2)nn1-c1ncccc1Cl` [I-1-347] the figure was 2.19.
With `Cc1cc(Cl)cc(C(=O)NCC#N)c1NC(=O)c1cc(Cn2cnc(C(F)(F)C(F)(F)F)n2)nn1-c1ncccc1Cl` [I-1-348], the logP is 2.21.
Compound `N#CCNC(=O)c1cc(Cl)cc(Cl)c1NC(=O)c1cc(Cn2cnc(C(F)(F)C(F)(F)F)n2)nn1-c1ncccc1Cl` [I-1-349] registered a logP of 2.19.
Same read-out and setting: the result for `Cc1cc(C#N)cc(C(N)=O)c1NC(=O)c1cc(Cn2cnc(C(F)(F)C(F)(F)F)n2)nn1-c1ncccc1Cl` [I-1-350] reads 1.75; that for `Cc1cc(C#N)cc(C(=O)NCC#N)c1NC(=O)c1cc(Cn2cnc(C(F)(F)C(F)(F)F)n2)nn1-c1ncccc1Cl` [I-1-351], 1.96; that for `CNC(=O)c1cc(C#N)cc(C)c1NC(=O)c1cc(Cn2cnc(C(F)(F)C(F)(F)F)n2)nn1-c1ncccc1Cl` [I-1-352], 1.91.
Still for that read-out and setting: with `Cc1cc(C#N)cc(C(=O)NC2CC2)c1NC(=O)c1cc(Cn2cnc(C(F)(F)C(F)(F)F)n2)nn1-c1ncccc1Cl` [I-1-353] the figure was 2.08; with `Cc1cc(C#N)cc(C(=O)NC(C)C)c1NC(=O)c1cc(Cn2cnc(C(F)(F)C(F)(F)F)n2)nn1-c1ncccc1Cl` [I-1-354], 2.23.
Consider `CNC(=O)c1cc(Cl)cc(C)c1NC(=O)c1cc(C(=NOC)n2nc(C(F)(F)F)cc2C(F)(F)F)nn1-c1ncccc1Cl` [I-1-355], for which the logP amounted to 4.07.

Staying with this series, now noted: HPLC on reverse-phase column.
`Cc1cc(Cl)cc(C(=O)NC(C)C)c1NC(=O)c1cc(Cn2nc(C(F)(F)F)cc2C(F)(F)F)nn1-c1ncccc1Cl` [I-1-2] came in with a logP of 4.08.
The same measure, in the same setting: with `Cc1cc(Cl)cc(C(=O)NC(C)C)c1NC(=O)c1cc(Cn2nc(C(F)(F)F)nc2C(F)(F)F)nn1-c1ncccc1Cl` [I-1-5] the figure was 3.88.
In turn, `Cc1cc(Cl)cc(C(=O)NC(C)C)c1NC(=O)c1cc(Cn2ccc(C(F)(F)F)n2)nn1-c1ncccc1Cl` [I-1-6] showed a logP of 3.27.
The compound `Cc1cc(Cl)cc(C(=O)NC(C)C)c1NC(=O)c1cc(Cn2cc(F)cn2)nn1-c1ncccc1Cl` [I-1-7] came in with a logP of 2.70.
The same measure, in the same setting: with `Cc1cc(Cl)cc(C(=O)NC(C)C)c1NC(=O)c1cc(Cn2cc(C#N)cn2)nn1-c1ncccc1Cl` [I-1-8] the figure was 2.57.

Still in this series, the particulars now being: HPLC, reverse-phase column (C 18), 43° C., acidic range pH 2.7.
With `Cc1cc(Cl)cc(C(=O)NC(C)C)c1NC(=O)c1cc(Cn2nc(C(F)(F)F)cc2C(F)(F)F)nn1C` [I-2-1], the logP amounted to 4.08.
`CC(C)NC(=O)c1cc(Cl)cc(Cl)c1NC(=O)c1cc(Cn2nc(C(F)(F)F)nc2C(F)(F)F)nn1C(C)C` [I-2-2] displayed a logP of 3.85.
On the same count and under the same terms, the result for `CNC(=O)c1cc(Cl)cc(Cl)c1NC(=O)c1cc(Cn2nc(C(F)(F)F)nc2C(F)(F)F)nn1C(C)C` [I-2-3] reads 3.31; that for `CNC(=O)c1cc(Cl)cc(Cl)c1NC(=O)c1cc(Cn2nc(C(F)(F)F)nc2C(F)(F)F)nn1C1CCCO1` (centres unmarked) [I-2-5], 2.83; that for `CNC(=O)c1cc(Cl)cc(Cl)c1NC(=O)c1cc(Cn2nc(C(F)(F)F)nc2C(F)(F)F)nn1C1CCOC1` (centres unmarked) [I-2-6], 2.99.
In turn, `CC(C)NC(=O)c1cc(Cl)cc(Cl)c1NC(=O)c1cc(Cn2nc(C(F)(F)F)cc2C(F)(F)F)nn1-c1ncc(C(F)(F)F)cc1Cl` [I-2-8] displayed a logP of 4.68.
`Cc1cc(I)cc(C(=O)NC(C)C)c1NC(=O)c1cc(Cn2nc(C(F)(F)F)cc2C(F)(F)F)nn1-c1ncc(C(F)(F)F)cc1Cl` [I-2-9] came in with a logP of 4.98.
On the same count and under the same terms, with `Cc1cc(I)cc(C(=O)NC2CC2)c1NC(=O)c1cc(Cn2nc(C(F)(F)F)cc2C(F)(F)F)nn1-c1ncc(C(F)(F)F)cc1Cl` [I-2-10] the figure was 4.73; with `Cc1cc(Cl)cc(C(=O)NC(C)C)c1NC(=O)c1cc(Cn2nc(C(F)(F)F)cc2C(F)(F)F)nn1-c1ncc(C(F)(F)F)cc1Cl` [I-2-11], 4.78; with `Cc1cc(Cl)cc(C(=O)NC2CC2)c1NC(=O)c1cc(Cn2nc(C(F)(F)F)cc2C(F)(F)F)nn1-c1ncc(C(F)(F)F)cc1Cl` [I-2-12], 4.52.
Still for that read-out and setting: the result for `O=C(NC1CC1)c1cc(Cl)cc(Cl)c1NC(=O)c1cc(Cn2nc(C(F)(F)F)cc2C(F)(F)F)nn1-c1ncc(C(F)(F)F)cc1Cl` [I-2-13] reads 4.46.
The same measure, in the same setting: the result for `Cc1cc(Cl)cc(C(=O)NC(C2CC2)C2CC2)c1NC(=O)c1cc(Cn2nc(C(F)(F)F)cc2C(F)(F)F)nn1-c1ncc(C(F)(F)F)cc1Cl` [I-2-14] reads 5.27.
With `Cc1cc(Cl)cc(C(=O)NC(C)C2CC2)c1NC(=O)c1cc(Cn2nc(C(F)(F)F)cc2C(F)(F)F)nn1-c1ncc(C(F)(F)F)cc1Cl` (centres unmarked) [I-2-15], the logP is 4.04.
Take `Cc1cc(Cl)cc(C(=O)NC(C)(C)C)c1NC(=O)c1cc(Cn2nc(C(F)(F)F)cc2C(F)(F)F)nn1-c1ncc(C(F)(F)F)cc1Cl` [I-2-16]: the logP amounted to 5.12.
The same measure, in the same setting: the result for `Cc1cc(Cl)cc(C(N)=O)c1NC(=O)c1cc(Cn2nc(C(F)(F)F)cc2C(F)(F)F)nn1-c1ncc(C(F)(F)F)cc1Cl` [I-2-17] reads 4.09; that for `Cc1cc(Cl)cc(C(=O)NCC#N)c1NC(=O)c1cc(Cn2nc(C(F)(F)F)cc2C(F)(F)F)nn1-c1ncc(C(F)(F)F)cc1Cl` [I-2-18], 4.23.
For the compound `Cc1cc(F)cc(C(=O)NC2CC2)c1NC(=O)c1cc(Cn2nc(C(F)(F)F)cc2C(F)(F)F)nn1-c1ncc(C(F)(F)F)cc1Cl` [I-2-19], the logP came to 4.11.
Turning to `Cc1cc(F)cc(C(=O)NC(C)C)c1NC(=O)c1cc(Cn2nc(C(F)(F)F)cc2C(F)(F)F)nn1-c1ncc(C(F)(F)F)cc1Cl` [I-2-20], the logP came to 4.47.
The same measure, in the same setting: with `Cc1cc(Br)cc(C(=O)NC(C)C)c1NC(=O)c1cc(Cn2nc(C(F)(F)F)cc2C(F)(F)F)nn1-c1ncc(C(F)(F)F)cc1Cl` [I-2-21] the figure was 4.75; with `CNC(=O)c1cc(Cl)cc(C)c1NC(=O)c1cc(Cn2nc(C(F)(F)F)cc2C(F)(F)F)nn1-c1ncc(C(F)(F)F)cc1Cl` [I-2-22], 3.53.
Same read-out and setting: the result for `CNC(=O)c1cc(Cl)cc(Cl)c1NC(=O)c1cc(Cn2nc(C(F)(F)F)cc2C(F)(F)F)nn1-c1ncc(C(F)(F)F)cc1Cl` [I-2-23] reads 3.54.
Compound `Cc1cc(Br)cc(C(=O)NC2CC2)c1NC(=O)c1cc(Cn2nc(C(F)(F)F)cc2C(F)(F)F)nn1-c1ncc(C(F)(F)F)cc1Cl` [I-2-24] had a logP of 4.63.
Still for that read-out and setting: the result for `CC(C)NC(=O)c1cc2ccccc2c(Cl)c1NC(=O)c1cc(Cn2nc(C(F)(F)F)cc2C(F)(F)F)nn1-c1ncccc1Cl` [I-3-1] reads 4.08.

The same series, now with this note: pH 2.7.
Compound `CNC(=O)c1cc(Cl)cc(C)c1NC(=O)c1cc(Cn2nc(C(F)(F)F)cc2C(F)(F)F)nn1-c1ncccc1Cl` [I-1-1, 5-(3,5-Bis-trifluoromethylpyrazol-1-ylmethyl)-2-(3-chloropyridin-2-yl)-2H-pyrazole-3-carboxylic acid 4-chloro-2-methyl-6-methylcarbamoylphenyl amide] had a chromatographic logP of 3.67.

One may read the logP as a log measure of how a compound divides between an organic and an aqueous phase. Lower therefore signals a more hydrophilic compound. One may read the chromatographic logP as lipophilicity estimated from chromatographic retention. Read a high chromatographic logP as higher lipophilicity.
